Results reported in publication PMC12703733, “Probing Guanidino Pendant or Bridged Groups in Cyclic Antimicrobial Peptides Derived from Temporin L: A Strategy to Improve Efficacy against Gram-Negative Bacteria” (Journal of Medicinal Chemistry, 2025).
≈ marks a conversion by molar mass, not a printed value. Like-named read-outs stand apart in the source and are kept apart here. Marks after values point to notes of the source that are not given here. Bridge positions count the residues as written; N and C are the ends. Square brackets hold non-standard residues; d marks the D form. Peptide text beside a SMILES is read from it.

Legend:
all bacteria tested = assay: MIC panel, geometric mean over all strains; format: cell-based; settings: geometric mean of the MICs against all bacteria tested
Method: (§1) The antimicrobial efficacy of the TLcyc analogues was assessed against a representative panel of Gram-positive and Gram-negative bacterial strains, by determining their minimal inhibitory concentrations (MIC), as summarized in Table . To provide an integrated measure of antimicrobial potency, we calculated the geometric mean (GM) of MIC values across all strains (GMall), as well as separately for Gram-positive (GMGram+) and Gram-negative (GMGram–) bacteria.
(§2) Bacterial strains used in this study were the Gram-positive S. aureus ATCC 25923, S. epidermidis ATCC 12228, B. megaterium BM11, S. agalactiae ATCC 27591, E. faecalis ATCC 29212 and the Gram-negative E. coli ATCC 25922, P. aeruginosa ATCC 27853, A. baumannii ATCC 19606, E. coli D21 and P. aeruginosa PAO1. […] Bacterial cells in the mid log phase were diluted in Muller Hinton (MH) at a concentration of 2 × 10^6 cell/mL. Aliquots of 50 μL of this bacterial suspension were added to 50 μL of MH containing serial 2-fold dilutions of the peptides (from 100 to 0.19 μM) in the wells a 96-well plate. Ciprofloxacin was used as antibiotic control. The plate was then incubated at 37 °C. MICs were obtained from three identical readings of four independent experiments.

E. faecalis ATCC 29212 = assay: microbe, parasite or virus in culture; format: cell-based; settings: ATCC 29212
Method in brief: (§3)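 Broth MIC determination: cells grown to mid-log phase, diluted to 2 × 10^6 cell/mL in Mueller Hinton, then incubated with compound at 37 °C.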

E. coli D21 = assay: microbe, parasite or virus in culture; format: cell-based; settings: D21
Method in brief: as §3

P. aeruginosa PAO1 = assay: microbe, parasite or virus in culture; format: cell-based; settings: PAO1
Method in brief: as §3

S. agalactiae ATCC 27591 = assay: microbe, parasite or virus in culture; format: cell-based; settings: ATCC 27591
Method in brief: as §3

E. coli ATCC 25922 = system: E. coli ATCC 25922; design: method as in Bellavita et al.; settings: previously determined for peptide 12, ref Bellavita et al., cited from earlier work
[1] = system: Gram-positive bacteria tested; assay: MIC panel, Gram-positive strains (geometric mean, range); format: cell-based; settings: geometric mean of the MICs against Gram-positive bacteria tested
Method: as §1, §2

[2] = system: Gram-negative bacteria tested; assay: MIC panel, Gram-negative strains (geometric mean); format: cell-based; settings: geometric mean of the MICs against Gram-negative bacteria tested
Method: as §1, §2

A. baumannii ATCC 19606 = system: A. baumannii ATCC 19606; design: method as in Bellavita et al.; settings: previously determined for peptide 12, ref Bellavita et al., cited from earlier work
S. aureus ATCC 25923 = system: S. aureus ATCC 25923; design: method as in Bellavita et al.; settings: previously determined for peptide 12, ref Bellavita et al., cited from earlier work
B. megaterium BM11 = system: B. megaterium BM11; design: method as in Bellavita et al.; settings: previously determined for peptide 12, ref Bellavita et al., cited from earlier work
[3] = design: method as in Bellavita et al.; settings: CD in H2O; previously determined for peptide 12; ref Bellavita et al.; cited from earlier work
[4] = system: S. epidermidis ATCC 12228; design: method as in Bellavita et al.; settings: previously determined for peptide 12, ref Bellavita et al., cited from earlier work
P. aeruginosa ATCC 27853 = system: P. aeruginosa ATCC 27853; design: method as in Bellavita et al.; settings: previously determined for peptide 12, ref Bellavita et al.; cited from earlier work

## CC[C@H](C)[C@H](NC(=O)[C@H](CCCNC(=N)N)NC(=O)[C@@H]1CCC(=O)NCCCC[C@H](NC(=O)[C@H](Cc2ccccc2)NC(=O)[C@H](Cc2c[nH]c3ccccc23)NC(=O)[C@@H]2CCCN2C(=O)[C@@H](NC(=O)[C@@H](N)Cc2ccccc2)C(C)C)C(=O)N[C@@H](CCCCN)C(=O)N[C@@H](Cc2ccccc2)C(=O)N[C@H](CC(C)C)C(=O)N1)C(=O)N[C@@H](CC(C)C)C(N)=O [Peptide 1, FVPWF[KKFlE]RIL] (H-FVPWFKKF[dL]ERIL-NH2; lactam 6-10)
All bacteria tested
  geometric mean GMall: 7.67 µM
E. faecalis ATCC 29212
  MIC: 6.25 µM (≈ 10.7 µg/mL)
E. coli D21
  MIC: 12.5 µM (≈ 21.3 µg/mL)
P. aeruginosa PAO1
  MIC: 25 µM (≈ 42.6 µg/mL)
S. agalactiae ATCC 27591
  MIC: 3.12 µM (≈ 5.32 µg/mL)
E. coli ATCC 25922; listed as 1 (TL cyc )
  MIC: 25 ^a μM
E. coli ATCC 25922
  MIC: 25 µM (≈ 42.6 µg/mL)
[1]
  geometric mean GMGram+: 3.12 µM
[2]
  geometric mean GMGram–: 18.9 µM
A. baumannii ATCC 19606; listed as 1 (TL cyc )
  MIC: 3.12 ^a μM
A. baumannii ATCC 19606
  MIC: 3.12 µM (≈ 5.32 µg/mL)
S. aureus ATCC 25923; listed as 1 (TL cyc )
  MIC: 3.12 ^a μM
S. aureus ATCC 25923
  MIC: 3.12 µM (≈ 5.32 µg/mL)
B. megaterium BM11; listed as 1 (TL cyc )
  MIC: 1.56 ^a μM
B. megaterium BM11
  MIC: 1.56 µM (≈ 2.66 µg/mL)
[3]
  Content in water (%) random: 55%
  Content in water (%) α-helix: 2%
  Content in water (%) β-strand: 41%
[4]; listed as 1 (TL cyc )
  MIC: 3.12 ^a μM
[4]
  MIC: 3.12 µM (≈ 5.32 µg/mL)
P. aeruginosa ATCC 27853
  MIC: 100 ^a μM
